According to patent US20230000936A1, “A[…] ITCHING […] C[…]” (Demetrix, Inc., priority 2021, published 2023):
“Also recorded” adds a separate entry of the source.

What was measured:
Format in all cases: cell-based
[1] = biological target: T1, MRGPRX2 (Homo sapiens, UniProt Q96LB1); experiment: IC50 antagonist activity screen, PathHunter β-Arrestin, MRGPRX2; details: maximum of IC50 curve
T1 sequence (Q96LB1 1-330): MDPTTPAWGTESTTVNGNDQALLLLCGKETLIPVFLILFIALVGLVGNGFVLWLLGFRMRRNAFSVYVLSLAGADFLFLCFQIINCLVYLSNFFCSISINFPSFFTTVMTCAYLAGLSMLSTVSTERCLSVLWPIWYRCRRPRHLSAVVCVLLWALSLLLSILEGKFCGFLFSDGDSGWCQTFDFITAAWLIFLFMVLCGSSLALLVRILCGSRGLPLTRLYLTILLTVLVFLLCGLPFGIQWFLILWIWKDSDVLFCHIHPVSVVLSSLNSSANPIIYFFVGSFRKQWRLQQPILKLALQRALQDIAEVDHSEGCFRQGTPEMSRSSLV
Method: (§1) In each of the antagonist assays, PathHunter® cell lines were removed from a freezer stock and seeded at a volume of 20 μL into white walled, 384-well microplates and incubated at 37° C. Each cell was pre-incubated with an antagonist followed by an agonist challenge at the EC80 concentration. Cells were then diluted to generate a 5× sample in assay buffer. 5 μL of the 5× sample was then added to cells and incubated at 37° C. for 30 minutes. Finally, 5 μL of 6×EC80 agonist in assay buffer were added to the cells and incubated at 37° C. for 90 minutes or 180 minutes. The assay signal was generated through addition of 12.5 μL or 15 μL (50% V/V) of a detection reagent cocktail followed by a one hour incubation time at room temperature. Microplates were read following signal generation with a PerkinElmer Envision™ (PerkinElmer Inc., Waltham, Mass.) for chemiluminescent signal detection. Reactivity was analyzed using the CBIS data analysis suite (ChemInnovation, CA) where RLU refers to the raw measured values. The percent inhibition was calculated using the formula: % Inhibition=100%*(1−mean RLU of test sample−mean RLU of control)/(mean RLU of EC80 control−mean RLU of vehicle control).
IC50 curves were measured using the same GPCR assay, PathHunter® β-Arrestin from Eurofins DiscoverX Products (Fremont, Calif.), as the GPCR reactivity screen. As used herein, strong activity against a receptor is considered a maximum activity of about 42% or higher. Higher results for antagonism against CHRM2, EDGE, and MRGPRX2 are considered better. It is further considered better when a cannabinoid inhibits more than one of the receptors.

[2] = biological target: T1, MRGPRX2; experiment: GPCR reactivity screen, PathHunter β-Arrestin, antagonist assay MRGPRX2; details: for antagonist activity against MRGPRX2 (in words): GPCR reactivity screen; for MRGPRX2 (Antagonist) percent inhibition: antagonist mode, agonist challenge at EC80
Method: (§2) To evaluate the role specific cannabinoid compounds play in the neurological signaling pathway for itching, a GPCR reactivity assay was performed to determine the reactivity of 19 cannabinoid compounds to each of CHRM2, EDG3, and MRGPRX2. The evaluated cannabinoid compounds were: CBN, THCV, CBDVA, CBG, CBL, CBC, CBDV, CBDA, CBD, CBGA, (+)-CBD, CBG-C4, CBD-C1, CBD-C2, CBGV, CBGA-C4, CBGVA, CBCA, and CBLA. Acetylcholine was used as the control for CHRM2, sphingosine-1-phosphate was used as the control for EDG3; and cortistatin 14 was used as the control for MRGPRX2.
as §1
(§3) As used herein, strong activity against a receptor is considered a percent activity of about 42% or higher. Higher results for antagonism against CHRM2, EDGE, and MRGPRX2 are considered better. It is further considered better when a cannabinoid inhibits more than one of the receptors.

[3] = biological target: T2, CHRM2 (Homo sapiens, UniProt P08172); experiment: GPCR reactivity screen, PathHunter β-Arrestin, agonist assay CHRM2; parameters: concentration or dose not given beside the values; details: agonist mode; control acetylcholine
T2 sequence (P08172 1-466): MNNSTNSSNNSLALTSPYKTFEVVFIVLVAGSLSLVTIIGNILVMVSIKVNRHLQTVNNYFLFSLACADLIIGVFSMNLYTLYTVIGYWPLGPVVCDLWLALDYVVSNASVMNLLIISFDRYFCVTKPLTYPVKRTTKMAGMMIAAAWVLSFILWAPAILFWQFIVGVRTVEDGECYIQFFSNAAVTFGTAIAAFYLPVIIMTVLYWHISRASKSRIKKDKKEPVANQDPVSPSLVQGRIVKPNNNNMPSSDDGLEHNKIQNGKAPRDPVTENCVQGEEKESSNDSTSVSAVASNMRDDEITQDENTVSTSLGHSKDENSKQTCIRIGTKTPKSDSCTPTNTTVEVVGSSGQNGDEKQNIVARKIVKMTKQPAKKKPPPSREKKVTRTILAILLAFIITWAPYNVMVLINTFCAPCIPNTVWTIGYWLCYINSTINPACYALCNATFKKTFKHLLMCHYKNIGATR
Method: as §2
(§4) A total of six assays were run. Specifically, agonist and antagonist assays were run for each of CHRM2, EDG3, and MRGPRX2. In each of the three agonist assays, PathHunter® cell lines were removed from a freezer stock and seeded at a volume of 20 μL into white walled, 384-well microplates and incubated at 37° C. Each cell was incubated with a sample to induce a response and then diluted to generate a 5× sample in assay buffer. 5 μL of the 5× sample was then added to cells and incubated at 37° C. for 90 or 180 minutes. The final assay concentration was 1%. The assay signal was generated through addition of 12.5 μL or 15 μL (50% V/V) of a detection reagent cocktail followed by a one hour incubation time at room temperature. Microplates were read following signal generation with a PerkinElmer Envision™ (PerkinElmer Inc., Waltham, Mass.) for chemiluminescent signal detection. Reactivity was analyzed using the CBIS data analysis suite (ChemInnovation, CA) where RLU refers to the raw measured values. The percent activity was then calculated using the formula: % Activity=100%*(mean RLU of test sample−mean RLU of control)/(mean max control ligand−mean RLU of vehicle control).
as §3

[4] = biological target: T3, EDG3 (Homo sapiens, UniProt Q99500); experiment: GPCR reactivity screen, PathHunter β-Arrestin, antagonist assay EDG3; details: for EDG3 (Antagonist) percent inhibition: antagonist mode, agonist challenge at EC80; for antagonist activity against EDG3 (in words): GPCR reactivity screen
T3 sequence (Q99500 whole entry): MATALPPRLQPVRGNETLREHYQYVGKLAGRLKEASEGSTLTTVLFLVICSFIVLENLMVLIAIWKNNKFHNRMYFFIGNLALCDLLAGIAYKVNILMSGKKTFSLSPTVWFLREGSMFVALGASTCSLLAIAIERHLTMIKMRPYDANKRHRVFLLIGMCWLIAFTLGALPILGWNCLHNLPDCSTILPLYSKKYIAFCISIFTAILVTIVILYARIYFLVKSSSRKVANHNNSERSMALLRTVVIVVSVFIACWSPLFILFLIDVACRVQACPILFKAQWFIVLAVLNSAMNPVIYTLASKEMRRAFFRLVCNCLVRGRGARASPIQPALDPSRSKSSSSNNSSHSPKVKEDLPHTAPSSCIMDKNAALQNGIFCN
Method: as §2, §1, §3

[5] = biological target: T3, EDG3; experiment: GPCR reactivity screen, PathHunter β-Arrestin, agonist assay EDG3; parameters: concentration or dose not given beside the values; details: agonist mode; control sphingosine-1-phosphate
Method: as §2, §4, §3

[6] = biological target: T1, MRGPRX2; experiment: GPCR reactivity screen, PathHunter β-Arrestin, agonist assay MRGPRX2; details: agonist mode; control cortistatin 14
Method: as §2, §4, §3

[7] = biological target: T2, CHRM2; experiment: GPCR reactivity screen, PathHunter β-Arrestin, antagonist assay CHRM2; details: for CHRM2 (Antagonist) percent inhibition: antagonist mode, agonist challenge at EC80; for antagonist activity against CHRM2 (in words): GPCR reactivity screen
Method: as §2, §1, §3

CCCCc1cc(O)c(CC=C(C)CCC=C(C)C)c(O)c1 [CBG-C4, cannabigerol butyl]
maximum inhibition (antagonism) MRGPRX2 [1]: 85%
antagonist activity against MRGPRX2 (in words) [2]: antagonist activity
MRGPRX2 (Antagonist) percent inhibition [2]: 94%
CHRM2 (Agonist) percent activity [3]: 0%
EDG3 (Antagonist) percent inhibition [4]: 28%
EDG3 (Agonist) percent activity [5]: 3%
MRGPRX2 (Agonist) percent activity [6]: 3%
CHRM2 (Antagonist) percent inhibition [7]: 13%

CCCCc1cc(O)c(C/C=C(\C)CCC=C(C)C)c(O)c1C(=O)O [CBGA-C4, cannabigerolic acid butyl]
antagonist activity against MRGPRX2 (in words) [2]: do not exhibit an antagonistic effect
MRGPRX2 (Antagonist) percent inhibition [2]: 20%
CHRM2 (Agonist) percent activity [3]: −4%
antagonist activity against EDG3 (in words) [4]: do not exhibit an antagonistic effect
EDG3 (Antagonist) percent inhibition [4]: 16%
EDG3 (Agonist) percent activity [5]: 0%
MRGPRX2 (Agonist) percent activity [6]: −1%
antagonist activity against CHRM2 (in words) [7]: do not exhibit an antagonistic effect
CHRM2 (Antagonist) percent inhibition [7]: 19%

CCCc1cc(O)c(C/C=C(\C)CCC=C(C)C)c(O)c1C(=O)O [CBGVA, cannabigerovarinic acid]
antagonist activity against MRGPRX2 (in words) [2]: do not exhibit an antagonistic effect
MRGPRX2 (Antagonist) percent inhibition [2]: 7%
CHRM2 (Agonist) percent activity [3]: −4%
antagonist activity against EDG3 (in words) [4]: do not exhibit an antagonistic effect
EDG3 (Antagonist) percent inhibition [4]: 9%
EDG3 (Agonist) percent activity [5]: −1%
MRGPRX2 (Agonist) percent activity [6]: −1%
antagonist activity against CHRM2 (in words) [7]: do not exhibit an antagonistic effect
CHRM2 (Antagonist) percent inhibition [7]: 23%

C=C(C)[C@@H]1CCC(C)=C[C@H]1c1c(O)cc(C)cc1O [CBD-C1, cannabidiorcol]
antagonist activity against MRGPRX2 (in words) [2]: do not exhibit an antagonistic effect; also recorded: did not exhibit antagonistic effects
MRGPRX2 (Antagonist) percent inhibition [2]: 12%
CHRM2 (Agonist) percent activity [3]: −1%
antagonist activity against EDG3 (in words) [4]: do not exhibit an antagonistic effect; also recorded: did not exhibit antagonistic effects
EDG3 (Antagonist) percent inhibition [4]: 13%
EDG3 (Agonist) percent activity [5]: 1%
MRGPRX2 (Agonist) percent activity [6]: 1%
antagonist activity against CHRM2 (in words) [7]: do not exhibit an antagonistic effect; also recorded: did not exhibit antagonistic effects
CHRM2 (Antagonist) percent inhibition [7]: 2%

CCCc1cc(O)c(C/C=C(\C)CCC=C(C)C)c(O)c1 [CBGV, cannabigerivarin]
maximum inhibition (antagonism) MRGPRX2 [1]: 76%
antagonist activity against MRGPRX2 (in words) [2]: antagonist activity
MRGPRX2 (Antagonist) percent inhibition [2]: 95%
CHRM2 (Agonist) percent activity [3]: 0%
EDG3 (Antagonist) percent inhibition [4]: 29%
EDG3 (Agonist) percent activity [5]: 2%
MRGPRX2 (Agonist) percent activity [6]: 1%
CHRM2 (Antagonist) percent inhibition [7]: 28%

C=C(C)[C@@H]1CCC(C)=C[C@H]1c1c(O)cc(CCCCC)c(C(=O)O)c1O [CBDA, cannabidiolic acid]
antagonist activity against MRGPRX2 (in words) [2]: do not exhibit an antagonistic effect
MRGPRX2 (Antagonist) percent inhibition [2]: 8%
CHRM2 (Agonist) percent activity [3]: 1%
antagonist activity against EDG3 (in words) [4]: do not exhibit an antagonistic effect
EDG3 (Antagonist) percent inhibition [4]: 5%
EDG3 (Agonist) percent activity [5]: −1%
MRGPRX2 (Agonist) percent activity [6]: 4%
antagonist activity against CHRM2 (in words) [7]: do not exhibit an antagonistic effect
CHRM2 (Antagonist) percent inhibition [7]: −10%

C=C(C)[C@@H]1CCC(C)=C[C@H]1c1c(O)cc(CCC)c(C(=O)O)c1O [CBDVA, cannabidivarinic acid]
antagonist activity against MRGPRX2 (in words) [2]: do not exhibit an antagonistic effect
MRGPRX2 (Antagonist) percent inhibition [2]: −8%
CHRM2 (Agonist) percent activity [3]: 2%
antagonist activity against EDG3 (in words) [4]: do not exhibit an antagonistic effect
EDG3 (Antagonist) percent inhibition [4]: 13%
EDG3 (Agonist) percent activity [5]: −3%
MRGPRX2 (Agonist) percent activity [6]: 5%
antagonist activity against CHRM2 (in words) [7]: do not exhibit an antagonistic effect
CHRM2 (Antagonist) percent inhibition [7]: 2%

C=C(C)[C@@H]1CCC(C)=C[C@H]1c1c(O)cc(CC)cc1O [CBD-C2, cannabidol-C2]
maximum inhibition (antagonism) MRGPRX2 [1]: 43%
antagonist activity against MRGPRX2 (in words) [2]: do not exhibit an antagonistic effect; also recorded: did not exhibit antagonistic effects
MRGPRX2 (Antagonist) percent inhibition [2]: 31%
CHRM2 (Agonist) percent activity [3]: 1%
antagonist activity against EDG3 (in words) [4]: do not exhibit an antagonistic effect; also recorded: did not exhibit antagonistic effects
EDG3 (Antagonist) percent inhibition [4]: 20%
EDG3 (Agonist) percent activity [5]: 1%
MRGPRX2 (Agonist) percent activity [6]: 1%
antagonist activity against CHRM2 (in words) [7]: do not exhibit an antagonistic effect; also recorded: did not exhibit antagonistic effects
CHRM2 (Antagonist) percent inhibition [7]: 21%

CCCCCc1cc(O)c2c(c1)OC(C)(C)c1ccc(C)cc1-2 [CBN, cannabinol]
maximum inhibition (antagonism) MRGPRX2 [1]: 78%
antagonist activity against MRGPRX2 (in words) [2]: antagonist activity
MRGPRX2 (Antagonist) percent inhibition [2]: 73%
CHRM2 (Agonist) percent activity [3]: 0%
EDG3 (Antagonist) percent inhibition [4]: 12%
EDG3 (Agonist) percent activity [5]: 5%
MRGPRX2 (Agonist) percent activity [6]: 22%
CHRM2 (Antagonist) percent inhibition [7]: 7%

CCCCCc1cc(O)c(C/C=C(\C)CCC=C(C)C)c(O)c1C(=O)O [CBGA, cannabigerolic acid]
antagonist activity against MRGPRX2 (in words) [2]: do not exhibit an antagonistic effect
MRGPRX2 (Antagonist) percent inhibition [2]: 17%
CHRM2 (Agonist) percent activity [3]: −3%
antagonist activity against EDG3 (in words) [4]: do not exhibit an antagonistic effect
EDG3 (Antagonist) percent inhibition [4]: 12%
EDG3 (Agonist) percent activity [5]: 2%
MRGPRX2 (Agonist) percent activity [6]: 0%
antagonist activity against CHRM2 (in words) [7]: do not exhibit an antagonistic effect
CHRM2 (Antagonist) percent inhibition [7]: 12%
